The source of these data is the supplement of paper PMC10307832.

Common to all, as to assay: relative viability (nuclei count vs DMSO), 5 days (fraction); higher = more cells survive
Compound in test [1]: O=C(C[C@H]1NCCC[C@@H]1O)Cn1cnc2cc(Br)c(Cl)cc2c1=O (racemic) [Halofuginone] + Nc1ncn([C@H]2C[C@H](O)[C@@H](CO)O2)c(=O)n1 [Decitabine] (partner 2 µM)
The method in brief:
(§1)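 Relative viability was taken as the ratio of nuclei in treated wells to nuclei in vehicle wells. Lung cancer cell lines in 1536-well plates received compounds by pin tool one day after seeding, either one drug alone or a fixed anchor-drug dose plus five library-drug doses (not always all listed) in √10 steps. Nuclei were counted on 4× images after 5 days of treatment, and values are medians of duplicate plates.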

Compound in test [2]: COc1cc2c(Oc3ccc4[nH]c(C)cc4c3F)ncnc2cc1OCCCN1CCCC1 [Cediranib] + CC(C)C[C@H](NC(=O)[C@H](Cc1ccccc1)NC(=O)c1cnccn1)B(O)O [Bortezomib] (partner 0.002 µM)
The method in brief:
as §1

Compound in test [3]: O=C(C[C@H]1NCCC[C@@H]1O)Cn1cnc2cc(Br)c(Cl)cc2c1=O (racemic) [Halofuginone] + Cc1nc(NC(=O)N2CCC[C@H]2C(N)=O)sc1-c1ccnc(C(C)(C)C(F)(F)F)c1 [Alpelisib] (partner 2 µM)
In a few lines: as §1

Compound in test [4]: O=C(C[C@H]1NCCC[C@@H]1O)Cn1cnc2cc(Br)c(Cl)cc2c1=O (racemic) [Halofuginone] + COc1cc2c(Oc3ccc(NC(=O)C4(C(=O)Nc5ccc(F)cc5)CC4)cc3F)ccnc2cc1OCCCN1CCOCC1 [Foretinib] (partner 0.25 µM)
In a few lines: as §1

Turning to UMC-11, the relative viability in test [1] (first compound 0.001 µM) turned out to be 0.646; in test [1] (first compound 0.003162 µM), 0.848; in test [1] (first compound 0.01 µM), 0.59; in test [1] (first compound 0.03162 µM) it was 0.604; in test [1] (first compound 0.1 µM), 0.426; in test [2] (first compound 0.04 µM) it was 1.02. The relative viability in test [2] (first compound 0.1265 µM) is 0.442; in test [2] (first compound 0.4 µM), 0.683; in test [2] (first compound 1.265 µM) it was 0.628; in test [2] (first compound 4 µM) it was 0.547; in test [3] (first compound 0.001 µM) it was 1.04; in test [3] (first compound 0.003162 µM), 0.909. Moreover, the relative viability in test [3] (first compound 0.01 µM) was found to be 0.989; in test [3] (first compound 0.03162 µM) it was 0.885; in test [3] (first compound 0.1 µM), 0.457; in test [4] (first compound 0.001 µM), 1.11; in test [4] (first compound 0.003162 µM) it was 1; in test [4] (first compound 0.01 µM), 0.991. Further, the values for the relative viability in test [4] (first compound 0.03162 µM) and in test [4] (first compound 0.1 µM) were 0.848 and 0.72, respectively.
